In patent publication US20060135624A1, “Natural compound useful for treating diabetes, its preparation and use” (JINGYU LIANG ET AL, priority 2002, published 2006):

What was measured:
[1] = tested on: mouse hyperglycemia induced by alloxan; assay: Time-effect relation of Sequoyitol to mouse hyperglycemia induced by alloxan; type: in vivo, Kunming mice; conditions: for blood-sugar level decreased compared to the control group: Sequoyitol 50 mg/kg p.o. 7 days
Procedure: 1. Experimental Methods^[1,2] • Alloxan was administrated to each of 30 mice by caudal vein injection with a dose of 65 mg/kg, and the mice were modeled according to the method of documents, divided into 3 groups according to blood-sugar values, […] according to […] of body weight, and the modeling group was administrated with the same volum of distilled water, separately. These administrations were conducted for continuous 7 days, and the mice were fasted for 2 hours before the last administration, and their blood-sugar levels were detected by glucose oxidase method at 1 2, 3 and 5 hours after the last administration.

[2] = tested on: blood-sugar level of normal mice; assay: Effect of Sequoyitol on blood-sugar level of normal mice; type: in vivo, Kunming mice; conditions: Sequoyitol groups (25, 50, 100 mg/kg) oral 7 days
Procedure: 1. Experimental Method^[3] • 60 Mice were randomly divided into 5 groups, […] according to 0.1 ml/10 g of body weight, respectively, and the normal group was administrated with the same volum of the same volum of distilled water. These administrations were conducted for continuous 7 days. The blood-sugar levels were detected by glucose oxidase method.

[3] = tested on: mouse hyperglycemia induced by adrenalin; assay: Effect of Sequoyitol on mouse hyperglycemia induced by adrenalin; type: in vivo, Kunming mice; conditions: for hepatic glycogen level increased compared to the control group: adrenalin model; for blood-sugar level decreased compared to the control group: 30 minutes after adrenalin 0.2 mg/kg i.p.
Procedure: 1. Experimental Methods^[3] • 72 Mice were randomly divided into 6 groups, wherein 4 groups were orally administrated with 25, 50 and 100 mg/kg of Sequoyitol and 10 mg/kg of Glibenclamide according to 0,1 ml/10 g of body weight, respectively, and the normal group and modeling group were administrated with the same volum of distilled water. These administrations were conducted for continuous 7 days. The normal group was administrated with the same volum of physiological saline by injection, while other groups were administrated with 0.2 mg/kg of adrenalin by intra-abdominal injection. The blood-sugar levels were detected by glucose oxidase method after 30 minutes of administration. The livers of the mice were collected, and hepatic glycogen levels were detected by anthrone method.

[4] = tested on: mouse hyperglycemia induced by glucose; assay: Effect of Sequoyitol on mouse hyperglycemia induced by glucose; type: in vivo, Kunming mice
Procedure: 1. Experimental Method^[4] • 72 Mice were randomly divided into 6 groups, […] according to 0.1 ml/10 g of body weight, respectively, and the normal group and modeling group were administrated with the same volum of distilled water. These administrations were conducted for continuous 7 days. The normal group was administrated with the same volum of physiological saline by injection, while other groups were administrated with […] of glucose by intra-abdominal injection. After 30, 60, 90 and 120 minutes of administration, bloods were collected from venous plexus behind fossa orbitalis, the serums were separated, and the blood-sugar levels were separately detected by glucose oxidase method.

[5] = tested on: rat hyperglycemia induced by alloxan; assay: Effect of Sequoyitol on rat hyperglycemia induced by alloxan; type: in vivo, SD rats
Procedure: 1. Experimental Methods^[5,6] • 5 Rats were randomly selected as normal group, the other 55 rats were fasted for 14-16 hours, administrated with 30 mg/kg of Pentobarbital by intra-abdominal injection. After paralyzed, the rats were administrated with 48 mg/kg of alloxan by vena femoralis injection, modeled according to methods of documents, and divided into 5 groups according to blood-sugar level, wherein each group had 11 rats, and 4 groups were orally administrated with 25, 50 and 100 mg/kg of Sequoyitol and 75 mg/kg of phenformine according to 1 ml/100 g of body weight, respectively, and the normal group and modeling group were administrated with the same volum of distilled water. These administrations were conducted for continuous 18 days. The fasting blood-sugar levels of the rats were separately measured at 6th and 12th day after the administration. At the 18th day, blood was collected from arteria femoralis, and the blood sugar level, insulin level, cholesterol content, triglyceride content, malonaldehyde content, and hepatocuprein activity of serum were measured; liver tissue was homogenated, and the malonaldehyde content, and hepatocuprein activity of liver tissue were measured; and pancreatic gland was soaked in 10% formalin, embedded with paraffin, sliced, and dyed with HE.

[6] = tested on: normal mice; assay: Test of acute toxicity by intravenous administration; type: in vivo; conditions: 5.04 g/kg intravenous injection
From the text: 1) Experimental Method • 20 Normal mice (half male and half female) were administrated with 5.04 g/kg Sequoyitol (which reached the maximum concentration and the maximum intravenous administration volume) by intravenous injection. The animals' responses were observed. The mice were executed after 14 days, and their organs were macroscopically observed.

[7] = tested on: normal mice; assay: General pharmacology in mice; conditions: mouse, in vivo
From the text: • 1. Guidelines for Studying New Drugs (Pharmacy, Pharmacology, Toxicology), Bureau of Drug Administration, the Ministry of Health of the People's Republic of China • 2. Chen Q I, Methodology for Studying Pharmacology of Chinese Medicine, People' Medical Publishing House, 1st Edition, 1993, 118-119 III. Studies on General Pharmacology • The effects of Sequoyitol on general physical signs and spontaneous movement of normal mice, on Pentobarbital hours of sleep of mice, and on respiratory movement, blood pressure, cardiac rhythm and electrocardiogram of rats were observed.

[8] = Sequoyitol 25 mg/kg oral 7 days
[9] = Sequoyitol 100 mg/kg oral 7 days
[10] = 50 and 100 mg/kg Sequoyitol groups, oral 18 days
[11] = Sequoyitol 50 mg/kg oral 18 days
[12] = Sequoyitol 100 mg/kg oral 18 days

`COC1C(O)C(O)C(O)C(O)C1O` (stereo not drawn) [Sequoyitol, 5-O-methyl-myo-inositol] was tested, and the “effect of alleviating hyperglycemia compared with phenformine” value ([1]; 60 mg/kg Sequoyitol vs 75 mg/kg phenformine) was “higher than that of 75 mg/kg phenformine”, the “blood-sugar level decreased compared to the control group” value (“blood-sugar level decreased” below) ([1]; 1 hour after last administration) was 100.0 mg/dL and the “blood-sugar level decreased” value ([1]; 2 hours after last administration) was 140.7 mg/dL. The “blood-sugar level decreased” value ([1]; 3 hours after last administration) was 193.9 mg/dL, the “blood-sugar level decreased” value ([1]; 5 hours after last administration) was 174.6 mg/dL and the “blood-sugar level compared with the normal group” value [2] was “not significantly different”. The “hepatic glycogen level increased compared to the control group” value (shortened to “hepatic glycogen level increased”) ([3]; Sequoyitol 20 mg/kg (so in the source) oral 7 days) was 1.24 mg/g of liver tissue, the “blood-sugar level decreased” value [3, 8] was 32.2 mg/dL and the “hepatic glycogen level increased” value [3, 8] was 1.76 mg/g of liver tissue. The “blood-sugar level decreased” value ([3]; Sequoyitol 50 mg/kg oral 7 days) was 35.5 mg/dL, the “blood-sugar level decreased” value [3, 9] was 39.9 mg/dL and the “hepatic glycogen level increased” value [3, 9] was 1.24 mg/g of liver tissue. For the same molecule, the “effect for alleviating hyperglycemia compared with phenformine” value ([4]; 100 mg/kg Sequoyitol vs 75 mg/kg phenformine) was “equivalent to that of 75 mg/kg phenformine”, the “glucose-induced hyperglycemia compared to the control group” value ([4]; 25 and 50 mg/kg Sequoyitol groups, oral 7 days, 30, 60, 90 minutes after i.p. glucose) was “significantly alleviated” and the “glucose-induced hyperglycemia compared to the control group” value ([4]; Sequoyitol 100 mg/kg oral 7 days, 30, 60, 90, 120 minutes after i.p. glucose) was “highly significantly alleviated”. For the same molecule, the “blood-sugar level decreased” value ([4]; Sequoyitol 100 mg/kg oral 7 days, 90 minutes after i.p. glucose) was 24.5 mg/dL, the “hyalinization of interstitial small vessels (histopathologic examination)” value [5, 10] was “alleviated” and the “inflammatory cell infiltration (histopathologic examination)” value [5, 10] was “reduced”. The “body weight of diabetes rats compared to the control group” value ([5]; 50 and 100 mg/kg Sequoyitol groups, oral, since the 15th day (increased at the 13th day)) was “significantly increased”, the “serum insulin level increased compared to the control group” value (from here on “serum insulin level increased”) ([5]; Sequoyitol 25 mg/kg oral 18 days) was 1.01 μlU/ml and the “alloxan-induced hyperglycemia compared to the control group” value ([5]; Sequoyitol 25 mg/kg oral, 12th day) was “significantly alleviated”. For the same molecule, the “blood-sugar level decreased” value ([5]; Sequoyitol 25 mg/kg oral, 18th day) was 194.4 mg/dL, the “body weight of diabetes rats compared to the control group” value ([5]; Sequoyitol 25 mg/kg oral, at the 17th day (increased at the 15th day)) was “significantly increased” and the “content of cholesterol in serum decreased compared to the control group” value [5, 11] was 22.2 mg/dL. The “content of triglyceride in serum decreased compared to the control group” value [5, 11] was 15.7 mg/dL, the “serum insulin level increased” value [5, 11] was 1.45 μl U/ml and the “blood-sugar level decreased” value ([5]; Sequoyitol 50 mg/kg oral, 6th day) was 129.1 mg/dL. The “blood-sugar level decreased” value ([5]; Sequoyitol 50 mg/kg oral, 12th day) was 200.7 mg/dL, the “blood-sugar level decreased” value ([5]; Sequoyitol 50 mg/kg oral, 18th day) was 223.1 mg/dL and the “activity of hepatocuprein in liver tissue increased compared to the control group” value [5, 12] was 18.3 NU/mg prot. The “activity of hepatocuprein in serum increased compared to the control group” value [5, 12] was 55.0 NU/ml, the “content of malonaldehyde in liver tissue decreased compared to the control group” value [5, 12] was 4.29 nmol/mg prot and the “content of malonaldehyde in serum decreased compared to the control group” value [5, 12] was 4.13 nmol/dL. For the same molecule, the “serum insulin level increased” value [5, 12] was 3.36 μlU/ml, the “blood-sugar level decreased” value ([5]; Sequoyitol 100 mg/kg oral, 6th day) was 120 mg/dL and the “blood-sugar level decreased” value ([5]; Sequoyitol 100 mg/kg oral, 12th day) was 218.2 mg/dL. The “blood-sugar level decreased” value ([5]; Sequoyitol 100 mg/kg oral, 18th day) was 240.3 mg/dL, the “number of pancreatic islands and number of cells in pancreatic islands (histopathologic examination) compared to the model group” value ([5]; Sequoyitol groups (25, 50, 100 mg/kg oral 18 days)) was “increased significantly” and the “main organs under macroscopic observation” value ([6]; executed after 14 days) was “free of abnormality”. For the same molecule, the “animals' responses after intravenous injection” value ([6]; observed 14 days) was “better health status, gloss fur, bright eyes, and good rang of motion”, the “effect on Pentobarbital hours of sleep of mice” value [7] was “did not significantly affect” and the “effect on spontaneous movement of mice” value [7] was “did not significantly affect”.
